What was measured:
HT-29 cells [1] = test: Antitumor effect against HT-29 cells transplanted into nude mice; format: in vivo; settings: HT-29 tumor grown to 100 mm^3 in nude mice; VST through the tail vein (FIG. 15)
Description: The antitumor effect of VST at the animal level was examined. Specifically, HT-29 cells were transplanted into nude mice and tumor was grown to 100 mm^3. Subsequently, each concentration of VST was administered through the tail vein, progress of cancer was followed each day thereafter, and the tumor was enucleated to compare its size. […] Furthermore, the combined effect with CDDP (cisplatin) was examined.

HT-29 cells [2] = test: Combined use of VST and cisplatin, colony-forming ability of HT-29 cells; format: cell-based; settings: glucose starvation condition
Text: Enhancement of endoplasmic reticulum stress response promotes survival of cells under undernutritive conditions, and at the same time allows cells to acquire resistance to antitumor agents. Therefore, the inventors intended to examine the effect of VST on known antitumor agents. […] Therefore, the combined effect with other pharmaceutical agents could not be duly examined. Thus, cisplatin generally used for solid cancer treatment was used to examine the combined effect, due to its activity on cancer cells that is maintained even under low glucose conditions. Specifically, HT-29 cells were cultured by the above-mentioned method, pretreated for 30 min with VST, and then cultured for 18 hours. The cells were then treated for 4 hours with each concentration of cisplatin, and a week later their colony-forming ability was examined.

## N.N.[Cl][Pt][Cl] [cisplatin, reference compound]
HT-29 cells [1]
  antitumor effect (tumor size): sufficient
HT-29 cells [2]
  activity on colony-forming ability under glucose starvation condition: enhance the activity

— patent US7358233B2, “Tetronic acid derivative” (Toudai TLO, Ltd, priority 2001, dated 2008)
